# According to patent US20020132364A1, “Quant-screentm chemiluminescent assays” (priority 2001, published 2002):
# Numbered stars: 1 amine (or outer) side, 2 acyl side, 3 side chain; on linkers, the order of the positions; unused ones are H or OH. Bridge positions count the residues as written; N and C are the ends. Square brackets hold non-standard residues; d marks the D form. Peptide text beside a SMILES is read from it. I, II: the chains in the order shown. Actinocin(9to1) = Cc1c2oc3c(C)ccc(C(=O)[*:1])c3nc-2c(C(=O)[*:2])c(N)c1=O; NMeV = CN[C@H](C(=O)O)C(C)C; Sar = CNCC(=O)O
# Tested on: Saccharomyces cerevisiae INVSc1 yeast cells
# Experiment: Yeast growth inhibition experiment (Quant-Screen Yeast Assay and OD600)
# Type: cell-based
# Settings: INVSc1 in YPD medium, 6 hours at 30° C., different concentrations
# Description: Serial dilutions of a yeast cell suspension prepared in culture media was placed in each well of a 96-well plate (100 μl/well). Next, 100 μl of reaction buffer containing the CDP-Star® substrate was added to each well. The light emission was then immediately measured in a luminometer (TR717®) (1 sec/well) or NorthStar® (60 sec/plate).
# An equivalent aliquot of yeast cell suspension (INVSc1) were inoculated into tubes with 2 ml of minimum medium containing various concentrations of leucine and were grown overnight at 30° C. with shaking. The overnight cultures were then measured by a spectrophotometer at 600 nm to estimate cell density. Next, each of the overnight cultures was transferred (100 μl/well) into a 96-well microplate in triplicate. An equal volume of reaction buffer was added. The plate was placed in TR717™ (a luminometer) to measure total light emission.
# 100 μof log phase growing yeast cells, INVSc1, were inoculated into tubes with 1 ml of YPD medium containing different concentrations of actinomycin D, a […]. The cultures were grown at 30° C. with shaking for 6 hours. The cultures were measured for OD600 in a spectrophotometer. Next, the cells were transferred (100 μl/well) in triplicate in a 96-well microplate. The assay was performed as in the Growth Stimulation Experiment set forth above.
smiles,measurement,value
"Cc1c2oc3c(C)ccc(C(=O)N[C@@H]4C(=O)N[C@H](C(C)C)C(=O)N5CCC[C@H]5C(=O)N(C)CC(=O)N(C)[C@@H](C(C)C)C(=O)O[C@@H]4C)c3nc-2c(C(=O)N[C@@H]2C(=O)N[C@H](C(C)C)C(=O)N3CCC[C@H]3C(=O)N(C)CC(=O)N(C)[C@@H](C(C)C)C(=O)O[C@@H]2C)c(N)c1=O [actinomycin D] (I: T[dV]P[Sar][NMeV] / II: T[dV]P[Sar][NMeV]; ester I:1-I:C, II:1-II:C; linker I:N-II:N via Actinocin(9to1))",O.D. measurement (OD600),declined with increasing concentrations
same,"signal intensity (Quant-Screen Yeast Assay, endogenous alkaline phosphatase, light emission)",declined with increasing concentrations
